According to the NIST ThermoML archive (doi:10.1021/acs.jced.8b00729):

Conditions: Gamma attenuation method

C1C[C@@H]2[C@H]3CC[C@H](C3)[C@@H]2C1 [exo-tetrahydrodicyclopentadiene]
Conditions	mass density [kg/m3]
267.3 K, 1480 kPa, Liquid	961.5
267.3 K, 6000 kPa, Liquid	962.3
267.9 K, 700 kPa, Liquid	960.4
267.9 K, 3060 kPa, Liquid	962.1
289.1 K, 6000 kPa, Liquid	952
290.2 K, 1480 kPa, Liquid	939.1
290.9 K, 700 kPa, Liquid	937.8
292.8 K, 3060 kPa, Liquid	940.4
307 K, 700 kPa, Liquid	924.7
307.5 K, 1480 kPa, Liquid	928.1
308.7 K, 3060 kPa, Liquid	930.1
309 K, 6000 kPa, Liquid	940.8
335.4 K, 6000 kPa, Liquid	918.1
336.6 K, 3060 kPa, Liquid	911.5
337.1 K, 700 kPa, Liquid	908.7
337.2 K, 1480 kPa, Liquid	910.1
368.4 K, 700 kPa, Liquid	881.1
369.6 K, 1480 kPa, Liquid	884.2
371.3 K, 3060 kPa, Liquid	884.3
373.9 K, 6000 kPa, Liquid	893.8
391.4 K, 6000 kPa, Liquid	883.9
391.9 K, 700 kPa, Liquid	861.9
394.8 K, 1480 kPa, Liquid	863.2
394.8 K, 3060 kPa, Liquid	864.7
430.8 K, 6000 kPa, Liquid	850.6
431.4 K, 700 kPa, Liquid	824.8
431.4 K, 1480 kPa, Liquid	832.6
431.4 K, 3060 kPa, Liquid	834.1
453.2 K, 3060 kPa, Liquid	820.5
453.8 K, 700 kPa, Liquid	801.2
454.4 K, 1480 kPa, Liquid	815.4
454.6 K, 6000 kPa, Liquid	829.8
483.1 K, 1480 kPa, Liquid	796.7
483.8 K, 700 kPa, Liquid	779.5
485.1 K, 3060 kPa, Liquid	800.4
485.9 K, 6000 kPa, Liquid	807
510 K, 700 kPa, Liquid	759.3
510.1 K, 1480 kPa, Liquid	772.1
510.3 K, 3060 kPa, Liquid	783.9
512.1 K, 6000 kPa, Liquid	777.4
529.9 K, 3060 kPa, Liquid	756
530.4 K, 1480 kPa, Liquid	743
531.9 K, 6000 kPa, Liquid	752.2
532.4 K, 700 kPa, Liquid	737.7
562.1 K, 700 kPa, Liquid	646.3
563.8 K, 1480 kPa, Liquid	716.9
564.1 K, 3060 kPa, Liquid	726.9
566.8 K, 6000 kPa, Liquid	719.2
603.4 K, 700 kPa, Gas	25.5
617.6 K, 1480 kPa, Gas	153.4
623.8 K, 6000 kPa, Liquid	661.1
627.1 K, 3060 kPa, Liquid	633.8
651.6 K, 700 kPa, Gas	22.9
651.9 K, 3060 kPa, Liquid	590.9
652.4 K, 6000 kPa, Liquid	615.5
652.9 K, 1480 kPa, Gas	55.3
681.8 K, 6000 kPa, Liquid	579.7
682.7 K, 700 kPa, Gas	29.4
683.2 K, 1480 kPa, Gas	57.8
685 K, 3060 kPa, Gas	193.2
714 K, 6000 kPa, Gas	465.2
715 K, 3060 kPa, Gas	124.1
715.8 K, 1480 kPa, Gas	58
730.2 K, 700 kPa, Gas	19.5
743.7 K, 3060 kPa, Gas	104.8
743.8 K, 6000 kPa, Gas	256.7
744 K, 1480 kPa, Gas	52.4
744.7 K, 700 kPa, Gas	19.7
771.9 K, 700 kPa, Gas	26.4
773.7 K, 1480 kPa, Gas	50.2
773.7 K, 6000 kPa, Gas	152.1
774 K, 3060 kPa, Gas	96.1
803.3 K, 700 kPa, Gas	24.4
803.8 K, 3060 kPa, Gas	87.6
804 K, 1480 kPa, Gas	47.9
804.1 K, 6000 kPa, Gas	142
833 K, 700 kPa, Gas	25.4
833.3 K, 1480 kPa, Gas	52.1
833.4 K, 6000 kPa, Gas	120.1
833.5 K, 3060 kPa, Gas	83.9
872.2 K, 3060 kPa, Gas	70.8
872.5 K, 1480 kPa, Gas	46.1
873.3 K, 700 kPa, Gas	24.4
873.4 K, 6000 kPa, Gas	110.1
